{
  "source": "patent US20200048208A1",
  "about": "“TREATMENT OF DISEASES OR DISORDERS CAUSED BY INDUCED NFkB TRANSCRIPTIONAL ACTIVITY” (Senex Biotechnology, Inc., priority 2011, published 2020)",
  "key": {"NFκB-dependent promoter [1]": {"system": "NFκB-dependent promoter", "assay": "NFκB-GFP reporter assay, induction by IPTG-inducible p21 (flow cytometric)", "format": "cell-based, human", "conditions": "HT1080 p21-9 derived NFκB-GFP reporter cells, 50 mM IPTG for 72 hrs, different concentrations", "procedure": "(§1) We have tested the effects of SNX2-class compounds on NFκB transcriptional activity. These assays were conducted with a reporter cell line that we derived from HT1080 p21-9 cells carrying IPTG-inducible p21 (Chang et al., 1999) after transduction with Cignal Lenti NFκB Reporter lentivirus (SA Biosciences), which expresses GFP from a NFκB-dependent minimal promoter. The reporter cell line was then selected for a high basal level of NFκB-dependent GFP expression, which was further increased by TNFα or upon p21 induction by IPTG."}, "NFκB-dependent promoter [2]": {"system": "NFκB-dependent promoter", "assay": "NFκB-GFP reporter assay, TNFα induction (96-well fluorometric)", "format": "cell-based, human", "conditions": "HT1080-based NFκB-GFP reporter cells", "procedure": "as §1\nThe ability of SNX2-class compounds to prevent the induction of the NFκB-dependent promoter by p21 was not surprising, since these compounds were identified by their ability to prevent p21-mediated induction of another promoter (CMV) (Chang et al., 2008), and NFκB stimulation by p21 was already known."}, "NFκB-inducible genes [3]": {"system": "NFκB-inducible genes", "assay": "QPCR of NFκB-inducible genes in TNFα-treated HEK293 cells", "format": "cell-based, human", "conditions": "HEK293, 5 μM pretreatment 1 hour, 10 ng/ml TNFα 30 minutes", "procedure": "The cells were seeded in 6-well plates at 6×10^5 cells/well in media containing 3% serum and cultured overnight. The next day, cells were pretreated with 5 μM Senexin A or with DMSO vehicle control for 1 hour and treated with or without 10 ng/ml TNFα for 30 minutes. Cells were then lysed for total RNA purification with the RNeasy Kit (Qiagen). For QPCR analysis of NFκB-inducible genes, cDNA was prepared using Maxima First Strand cDNA Synthesis Kit (Thermo Scientific/Fermentas, K1641) and gene expression was measured by QPCR with gene-specific primers, with RPL13A as a normalization standard, using Maxima SYBR Green/ROX qPCR Master Mix (Thermo Scientific/Fermentas, K0223) and ABI Prism 7900HT Detection system (Life technologies)."}, "NFκB-inducible genes [4]": {"system": "NFκB-inducible genes", "assay": "QPCR of NFκB-inducible genes in TNFα-treated wild-type HCT116 cells", "format": "cell-based, human", "conditions": "wild-type HCT116, 5 μM pretreatment 1 hour, 10 ng/ml TNFα 30 minutes", "procedure": "(§2) We have verified the effect of CDK8/19 inhibition on NFκB-mediated induction of transcription in human HCT116 colon carcinoma cells, where we also used the availability of a p21−/− derivative of this cell line (Waldman et al., 1996) to determine if this effect depends on p21. The wild-type and p21−/− HCT116 cells were seeded in 6-well plates at 6×10^5 cells/well in media with 10% serum and cultured overnight. The next day, cells were pretreated with 5 μM Senexin A or with DMSO vehicle control for 1 hour and treated with or without 10 ng/ml TNFα for 30 minutes. Cells were then lysed for RNA purification and QPCR analysis of NFκB-inducible genes."}, "NFκB-inducible genes [5]": {"system": "NFκB-inducible genes", "assay": "QPCR of NFκB-inducible genes in TNFα-treated p21−/− HCT116 cells", "format": "cell-based, human", "conditions": "p21−/− HCT116, 5 μM pretreatment 1 hour, 10 ng/ml TNFα 30 minutes", "procedure": "as §2"}, "[6]": {"system": "TNFα-induced NFκB-dependent transcription", "assay": "NFkB-GFP reporter flow cytometry after inhibitor and TNFα (GFP fluorescence)", "format": "cell-based, human", "conditions": "HT1080-derived reporter, inhibitor 3 hours then 18 hours TNFα (10 ng/ml)", "procedure": "(§3) We have compared Senexin A to two known proteasome-targeting NFκB inhibitors, N-tosyl-L-phenylalanine chloromethyl ketone (TPCK) (Ha et al., 2009) and MG115 in regard to their cytotoxicity and their effect on the nuclear translocation of active NFκB. In the experiment shown in FIG. 7, the HT1080-derived NFkB-GFP reporter cell line was seeded in 60 mm plates at 1.5×10^5 cells per plate and cultured overnight before being treated with different NFκB inhibitors at the concentrations indicated in FIG. 7 for 3 hours, followed by 18 hours TNFα (10 ng/ml) stimulation. The treated cells were trypsinized, resuspended in PBS, mixed with 5 μg/ml propidium iodide (PI), and analyzed using LSRII flow cytometer (BD Biosciences) for GFP fluorescence (left panel) and the percentage of dead (PI-positive) cells (right panel)."}, "[7]": {"system": "HT1080-derived NFkB-GFP reporter cell line", "assay": "Propidium iodide flow cytometry for dead cells", "format": "cell-based, human", "conditions": "inhibitor 3 hours then 18 hours TNFα (10 ng/ml)", "procedure": "as §3"}, "p65": {"system": "p65", "assay": "TransAM NFκB DNA-binding ELISA of nuclear extracts, p65", "format": "cell-based, human", "conditions": "HT1080 and HEK293 cells, untreated and TNFα-treated; 5 μM Senexin A, 60 μM TPCK, 10 μM MG115 for 3 hours", "source_text": "(§4) Given the role of NFxB in the induction of transcription by p21 (Poole et al., 2004), we have tested SNX2 for the ability to decrease the amount of active NFκB in the nucleus, a general assay for different known classes of NFκB inhibitors. As shown in FIG. 8 of US patent publication 20080033000, we have found, using ACTIVE MOTIF TransAM™ NFκB p65 Chemi and NFκB p50 Chemi Transcription Factor Assay Kits, that SNX2 had no effect on the amount of p50 or p65 NFκB subunits binding to NFκB consensus sequence in nuclear extracts from HT 1080 cells, untreated or treated with NFκB inducer TNFα.\n(§5) The DNA-binding activities of nuclear NFκB proteins were measured by the ELISA-based TransAM NFκB Family Transcriptional Factor Assay Kit (Active Motif) following manufacturer's protocol. HT1080 and HEK293 cells were pretreated with inhibitors (5 μM Senexin A, 60 μM TPCK, 10 μM MG115) for 3 hours and then treated with 10 ng/ml TNF for 30 minutes before nuclear extract preparation with Nuclear Extraction Kit (Active Motif). Nuclear extracts were assayed at 5 μg/well for p65 and 2.5 μg/well for p50 DNA binding."}, "p50": {"system": "p50", "assay": "TransAM NFκB DNA-binding ELISA of nuclear extracts, p50", "format": "cell-based, human", "conditions": "HT1080 and HEK293 cells, untreated and TNFα-treated; 5 μM Senexin A, 60 μM TPCK, 10 μM MG115 for 3 hours", "source_text": "as §4, §5"}, "[8]": {"conditions": "bone loss therapy (Hiligsmann and Reginster, 2010); cited from earlier work"}, "[9]": {"system": "induction of transcription by p21", "conditions": "at concentrations that inhibit NFκB (Poole et al., 2004); cited from earlier work"}, "[10]": {"conditions": "clinical experience (Cavaletti and Jakubowiak, 2010); cited from earlier work"}},
  "note": "Entries after “also recorded” stand apart in the source; their conditions may differ. Non-standard residues stand in square brackets, D forms with d. Residues, ends and D or L forms follow the SMILES beside them. *: point of attachment. Nva = CCC[C@H](N)C(=O)O; Cbz = O=C(OCc1ccccc1)*",
  "data": [
    {"molecule": "N#Cc1ccc2ncnc(NCCc3ccccc3)c2c1", "note": "[SNX2-1-53]", "values": [
      {"measurement": "induction of the NFκB-dependent promoter by p21 (GFP expression)", "setting": "NFκB-dependent promoter [1]", "result": "strongly inhibited"},
      {"measurement": "induction of the NFκB-dependent promoter by p21 (GFP expression)", "setting": "NFκB-dependent promoter [1]; listed as Senexin A", "result": "dose dependent inhibition"},
      {"measurement": "TNFα-induced NFκB activity (GFP expression normalized by Hoechst 33342)", "setting": "NFκB-dependent promoter [2]; 10 ng/ml TNFα for 18 hrs", "result": "inhibited TNFα-induced NFκB activity"},
      {"measurement": "basal NFκB activity (normalized GFP expression)", "setting": "NFκB-dependent promoter [2]; untreated (no TNFα)", "result": "did not significantly inhibit"},
      {"measurement": "induction of NFκB-regulated genes by TNFα", "setting": "NFκB-inducible genes [3]", "result": "drastically inhibited"},
      {"measurement": "TNFα-induced gene expression", "setting": "NFκB-inducible genes [4]", "result": "inhibited TNFα-induced gene expression to the same degree"},
      {"measurement": "TNFα-induced gene expression", "setting": "NFκB-inducible genes [5]", "result": "inhibited TNFα-induced gene expression to the same degree"},
      {"measurement": "TNFα-induced NFκB-dependent transcription (GFP fluorescence)", "setting": "[6]; listed as Senexin A", "result": "inhibits NFκB activation; also recorded: inhibited TNFα-induced NFκB-dependent transcription"},
      {"measurement": "fraction of dead (PI-positive) cells", "setting": "[7]; listed as Senexin A", "result": "minimal effects on cell viability; also recorded: did not"},
      {"measurement": "amount of active p65 (DNA binding) in nuclear extracts", "setting": "p65", "result": "does not block; also recorded: indistinguishable from the control"},
      {"measurement": "amount of active p50 (DNA binding) in nuclear extracts", "setting": "p50", "result": "does not block; also recorded: indistinguishable from the control"}
    ]},
    {"molecule": "denosumab", "values": [
      {"measurement": "safety profile", "setting": "[8]", "result": "good safety profile"}
    ]},
    {"molecule": "CCC[C@@H](C=O)NC(=O)[C@H](CC(C)C)NC(=O)[C@H](CC(C)C)NC(=O)OCc1ccccc1", "note": "[MG115, reference compound] (Cbz-Leu-Leu-[Nva]-aldehyde)", "values": [
      {"measurement": "TNFα-induced NFκB-dependent transcription (GFP fluorescence)", "setting": "[6]", "result": "inhibited TNFα-induced NFκB-dependent transcription"},
      {"measurement": "fraction of dead (PI-positive) cells", "setting": "[7]", "result": "strongly increased the fraction of dead cells"},
      {"measurement": "amount of active p65 (DNA binding) in nuclear extracts", "setting": "p65", "result": "strongly decreased"},
      {"measurement": "amount of active p50 (DNA binding) in nuclear extracts", "setting": "p50", "result": "strongly decreased"}
    ]},
    {"molecule": "CC1=C(CC(=O)O)c2cc(F)ccc2/C1=C\\c1ccc([S+](C)[O-])cc1", "note": "(stereo not shown) [Sulindac]", "values": [
      {"measurement": "induction of transcription by p21", "setting": "[9]", "result": "inhibited"}
    ]},
    {"molecule": "CC(C)C[C@H](NC(=O)[C@H](Cc1ccccc1)NC(=O)c1cnccn1)B(O)O", "note": "[Bortezomib]", "values": [
      {"measurement": "Bortezomib-induced peripheral neuropathy", "setting": "[10]", "result": "37-44 % of patients"}
    ]},
    {"molecule": "N-tosyl-L-phenylalanine chloromethyl ketone [TPCK, reference compound]", "values": [
      {"measurement": "TNFα-induced NFκB-dependent transcription (GFP fluorescence)", "setting": "[6]", "result": "inhibited TNFα-induced NFκB-dependent transcription"},
      {"measurement": "fraction of dead (PI-positive) cells", "setting": "[7]", "result": "strongly increased the fraction of dead cells"},
      {"measurement": "amount of active p65 (DNA binding) in nuclear extracts", "setting": "p65", "result": "strongly decreased"},
      {"measurement": "amount of active p50 (DNA binding) in nuclear extracts", "setting": "p50", "result": "strongly decreased"}
    ]}
  ]
}
